Test results taken from publication PMC3991331, “Fragment screening reveals salicylic hydroxamic acid as an inhibitor of Trypanosoma brucei GPI GlcNAc-PI de-N-acetylase” (Carbohydrate Research, 2014).
Where two headings read alike, the source gives them in different places.

Legend:
[1] = molecular target: T1, recombinant T. brucei GlcNAc-PI de-N-acetylase (GST-TbGPI12) (Trypanosoma brucei, UniProt Q8I8A5); assay: Mass spectrometry based activity assay, recombinant GST-TbGPI12; assay type: biochemical
T1 sequence (Q8I8A5 entry or part of it): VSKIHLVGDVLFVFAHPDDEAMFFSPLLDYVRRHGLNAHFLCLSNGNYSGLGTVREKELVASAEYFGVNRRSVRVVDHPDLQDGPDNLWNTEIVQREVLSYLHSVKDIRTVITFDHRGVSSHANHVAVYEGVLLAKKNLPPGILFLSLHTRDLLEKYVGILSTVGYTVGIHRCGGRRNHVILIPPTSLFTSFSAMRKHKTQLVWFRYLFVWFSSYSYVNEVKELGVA
Protocol: Inhibition assays were performed in 100 μL final volume, with 1% v/v DMSO with or without inhibitor. […]. Enriched glycolipids were analysed by liquid chromatography coupled to an electrospray tandem mass spectrometer (LC–MS/MS). Samples (40 μL) were injected on to a 10 × 1 mm C18 column (ACE, 5 μM) and eluted using a binary gradient of 5–80% propan-1-ol in 5 mM NH4OAc (Dionex Ultimate 3000). The gradient consisted of 2 min 0% B, 2–4 min 0–100% B, 4–8 min 100%, 8–9 min 100–0% B, 9–10 min 0% B where buffer A consisted of 5% propan-1-ol, 5 mM NH4OAc and buffer B 80% propan-1-ol, 5 mM NH4OAc. The glycolipids were analysed on an electrospray triple quadrapole mass spectrometer (Micromass Quattro Ultima) in multiple reaction monitoring mode. The turnover of the substrate GlcNAc-IPC18 (m/z 715 > 223) to GlcN-IPC18 (m/z 672 > 223) was used to calculate the percentage of substrate conversion to product in a given sample.[6] Inhibitor IC50 values were calculated using a four-parameter fit of eight-point potency curves derived from three independent experiments, and are quoted with standard deviation. […]
Figure 2 T. brucei GlcNAc-PI de-N-acetylase inhibitors. The activity of the recombinant enzyme against the synthetic substrate D-glucosamine-α-(1-6)-D-myo-inositol-1-octadecyl phosphate was measured using a mass spectrometry based assay (A) Fragments were screened at 1 mM in duplicate. […]

[2] = molecular target: T1, recombinant T. brucei GlcNAc-PI de-N-acetylase (GST-TbGPI12); parameters: method as in PMID 22222041; conditions: previously reported glucocyclitol-phospholipid substrate analogue; cited from earlier work
[3] = molecular target: T. brucei de-N-acetylase (cell-free system) (Trypanosoma brucei, UniProt Q8I8A5); assay: Mass spectrometry based activity assay, trypanosome cell-free system; assay type: biochemical; conditions: for inhibition at 1000 µM: read-out: Inhibition at 1 mM (%); for ligand efficiency: from IC50 in cell-free system
T. brucei de-N-acetylase (cell-free system), sequence (Q8I8A5 entry or part of it): as above
Protocol: Inhibition assays were performed in 100 μL final volume, with 1% v/v DMSO with or without inhibitor. […] Enriched glycolipids were analysed by liquid chromatography coupled to an electrospray tandem mass spectrometer (LC–MS/MS). Samples (40 μL) were injected on to a 10 × 1 mm C18 column (ACE, 5 μM) and eluted using a binary gradient of 5–80% propan-1-ol in 5 mM NH4OAc (Dionex Ultimate 3000). The gradient consisted of 2 min 0% B, 2–4 min 0–100% B, 4–8 min 100%, 8–9 min 100–0% B, 9–10 min 0% B where buffer A consisted of 5% propan-1-ol, 5 mM NH4OAc and buffer B 80% propan-1-ol, 5 mM NH4OAc. The glycolipids were analysed on an electrospray triple quadrapole mass spectrometer (Micromass Quattro Ultima) in multiple reaction monitoring mode. […] Inhibitor IC50 values were calculated using a four-parameter fit of eight-point potency curves derived from three independent experiments, and are quoted with standard deviation. […]

[4] = tested on: T. brucei GPI pathway (cell-free system); assay: Trypanosome cell-free system assay, [3H]-mannose incorporation into GPI intermediates (HPTLC, fluorography); conditions: GlcNAc-IPC18 10 μM; GDP-[3H]-mannose; tested at 0, 100, 300, 1000 μM
Protocol: Trypanosome cell-free system assays, where the formation of GPI precursors is monitored by following the incorporation of [^3H]-mannose were analysed using high-performance liquid chromatography and fluorography as described previously.[13]
Priming the cell-free system with GlcAc-IPC18 in the presence of GDP-[^3H]-mannose stimulates the production of radiolabelled mannosylated GPI intermediates that can be separated by high performance thin-layer chromatography and visualised by fluorography.
(A) The T. brucei cell-free system was incubated with GlcNAc-PI (10 μM) in the presence of 0, 100, 300, or 1000 μM of 1 and 0.5 μCi of GDP-[^3H]-mannose to stimulate the production of radiolabelled mannosylated GPI intermediates. Glycolipid products were extracted, separated by high-performance thin-layer chromatography, and visualised by fluorography. DPM–dolichol-phosphate-mannose, M1–Man1GlcN-IPC18, M2–Man2GlcN-IPC18, M3–Man3GlcN-IPC18, A′–EtNPMan3GlcN-IPC18. (B) Inhibition of the turnover of GlcNAc-IPC18 (10 μM) by the presence of 1 measured in the T. brucei cell-free system in the LC–MS/MS assay.

[5] = tested on: bloodstream form T. brucei; parameters: method as in PMID 986688, PMID 17126803; conditions: cited from earlier work
[6] = 1 mM, cell-free system, Table 1, commercially available analogues of 1
[7] = 1 mM, fragment library screen, Table S1, footnote: cell-free system

**Q.** With CCCCCCCCCCCCCCCCCCOP(=O)(O)O[C@@H]1CCCC[C@H]1O[C@@H]1O[C@H](CO)[C@@H](O)[C@H](O)[C@H]1CC(=O)NO [1R,2R-1-O-[2-C-(carboxymethyl N-hydroxyamide)-2-deoxy-β-D-glucopyranosyl]-cyclohexanediol 2-(n-octadecylphosphate), reference compound] as the compound, how does the ligand efficiency ([1]; from the previously reported IC50 of ref 13) read?
**A.** Its ligand efficiency is −0.13 kcal mol^−1 per non-hydrogen atom.

**Q.** And the IC50 [2]?
**A.** Its IC50 is 19 ± 0.5 µM.

**Q.** What does the source list for O=C(NO)c1ccccc1O [compound 1, salicylic hydroxamic acid]?
**A.** IC50 [1]: 63 ± 4 µM; inhibition at 1000 µM [3]: 97 ± 2%; concentration that prevented priming of the cell-free system with GlcNAc-IPC18 [4]: > 300 µM; toxicity in vivo to bloodstream form T. brucei [5]: toxic in vivo

**Q.** For O=C(O)c1ccccc1O [compound 2], which inhibition at 1000 µM [3] is on record?
**A.** Its inhibition at 1000 µM is 25 ± 1%.

**Q.** Which inhibition at 1000 µM [3, 6] does the source give for O=C(NO)c1ccccc1 [compound 3] here?
**A.** The inhibition at 1000 µM was -6 ± 14%.

**Q.** With O=C(NO)c1ccccc1Br [compound 4] as the compound, how does the inhibition at 1000 µM [3, 6] read?
**A.** Its inhibition at 1000 µM is -4 ± 15%.

**Q.** For Nc1ccccc1C(=O)NO [compound 5], which inhibition at 1000 µM [3, 6] is on record?
**A.** Its inhibition at 1000 µM is -5 ± 2%.

**Q.** With O=C(NO)c1ccc(Br)cc1O [compound 6] as the compound, how does the inhibition at 1000 µM [3, 6] read?
**A.** The inhibition at 1000 µM was 86 ± 2%.

**Q.** Which inhibition at 1000 µM [3, 6] does the source give for O=C(NO)c1ccc(Br)cc1 [compound 7] here?
**A.** The inhibition at 1000 µM was 9.6 ± 15%.

**Q.** Which ligand efficiency [3] does the source give for O=C(NO)c1cc(NC(=O)C2CCCCC2)ccc1O [compound 20, 5-(Cyclohexanecarboxamido)-N,2-dihydroxybenzamide] here?
**A.** The ligand efficiency was −0.30 kcal mol^−1 per non-hydrogen atom.

**Q.** And the inhibition at 1000 µM [3]?
**A.** The inhibition at 1000 µM was 99 ± 1.6%.

**Q.** What about the melting point of the same compound?
**A.** The melting point was 229 to 230 °C.

**Q.** Which ligand efficiency [3] does the source give for O=C(Nc1ccc(O)c(C(=O)NO)c1)c1ccccc1 [compound 21, 5-Benzamido-N,2-dihydroxybenzamide] here?
**A.** The ligand efficiency was −0.29 kcal mol^−1 per non-hydrogen atom.

**Q.** What about the inhibition at 1000 µM [3] of the same compound?
**A.** Its inhibition at 1000 µM is 96 ± 0.4%.

**Q.** What about the melting point of the same compound?
**A.** Its melting point is 211 °C.

**Q.** For Cc1ccc(C(=O)Nc2ccc(O)c(C(=O)NO)c2)cc1 [compound 22, N,2-Dihydroxy-5-(4-methylbenzamido)benzamide], which inhibition at 1000 µM [3] is on record?
**A.** Its inhibition at 1000 µM is 62 ± 24%.

**Q.** And the melting point?
**A.** The melting point was 209 °C.

**Q.** What does the source list for CCCCCCCCCCCCCCCCCC(=O)Nc1ccc(O)c(C(=O)NO)c1 [compound 23, N,2-Dihydroxy-5-stearamidobenzamide]?
**A.** inhibition at 1000 µM [3]: 25 ± 14%; melting point: 185 to 187 °C

**Q.** For CC(=O)N1CCC(C(=O)Nc2ccc(O)c(C(=O)NO)c2)CC1 [compound 24, 1-Acetyl-N-(4-hydroxy-3-(hydroxycarbamoyl)phenyl)piperidine-4-carboxamide], which inhibition at 1000 µM [3] is on record?
**A.** The inhibition at 1000 µM was 40 ± 17%.

**Q.** And the melting point?
**A.** Its melting point is 211 to 212 °C.

**Q.** Which inhibition at 1000 µM [3] does the source give for O=C(Nc1ccc(O)c(C(=O)NO)c1)c1ccc(-c2ccccc2)cc1 [compound 25, N-(4-Hydroxy-3-(hydroxycarbamoyl)phenyl)-[1,1'-biphenyl]-4-carboxamide] here?
**A.** Its inhibition at 1000 µM is 75 ± 7%.

**Q.** And the melting point?
**A.** Its melting point is 216 °C.

**Q.** With O=C(NO)c1cc(NC(=O)C2CCOCC2)ccc1O [compound 26, N-(4-Hydroxy-3-(hydroxycarbamoyl)phenyl)tetrahydro-2H-pyran-4-carboxamide] as the compound, how does the inhibition at 1000 µM [3] read?
**A.** Its inhibition at 1000 µM is 56 ± 8.3%.

**Q.** And the melting point?
**A.** Its melting point is 209 °C.

**Q.** Which inhibition at 1000 µM [3] does the source give for O=C(Nc1ccc(O)c(C(=O)NO)c1)c1ccc2c(c1)OCO2 [compound 27, N-(4-Hydroxy-3-(hydroxycarbamoyl)phenyl)benzo[d][1,3]dioxole-5-carboxamide] here?
**A.** The inhibition at 1000 µM was 86 ± 11%.

**Q.** And the melting point?
**A.** Its melting point is 209 °C.

**Q.** With COc1ccc(NC(=O)NO)cc1 [compound 503] as the compound, how does the inhibition at 1000 µM [3, 7] read?
**A.** The inhibition at 1000 µM was 53 ± 2%.

**Q.** With O=C(CCCOc1ccc(Cl)cc1Cl)NO [compound 508] as the compound, how does the inhibition at 1000 µM [3, 7] read?
**A.** The inhibition at 1000 µM was 67 ± 20%.

**Q.** For O=C(COc1ccc(Cl)cc1Cl)NO [compound 509], which inhibition at 1000 µM [3] is on record?
**A.** Its inhibition at 1000 µM is 62 ± 0.3%.

**Q.** With O=C(NO)C1CCN(c2ncc(C(F)(F)F)cc2Cl)CC1 [compound 513] as the compound, how does the inhibition at 1000 µM [3, 7] read?
**A.** The inhibition at 1000 µM was 54 ± 4%.

**Q.** With O=C(CCc1nc(-c2ccc(Cl)cc2)no1)NO [compound 514] as the compound, how does the inhibition at 1000 µM [3, 7] read?
**A.** Its inhibition at 1000 µM is 54 ± 9%.
